In patent US12473250B2, “Molecular design of new antibiotics and antibiotic adjuvants against MCR strains” (priority 2019, dated 2025):
Values after ≈ are worked out from the molar mass of the structure shown.

Columns and labels:
[1] = test system: colistin resistant mcr-1 (+) strains 6083655967, 6075066346 and mcr-1 (−) strain 7023446108; test: Time kill study; type: cell-based, E. coli; conditions: in 2 hours
Procedure: Time kill assay is used to determine the rate at which concentrations an antimicrobial agent kill a bacterial isolate. The bacterial suspension was adjusted to 10^6 to 10^7 CFU/mL with different concentrations of LC compounds and the antibiotics for comparison in separate tubes that incubated at 35° C. For synergy time kill: Two different antimicrobial agents which are antibiotic/LC compounds were added in an equal amount make a final volume to 1 mL (e.g: 500 μL of Antibiotic: 500 μL of LC compound) and subsequently 1 mL of prepared bacteria suspension were added into the same tube. Aliquots of 100 μL samples will be withdrawn at different time intervals (0, 1, 2, 4, 8, 24 hours) and were plated on Mueller Hinton Agar (MHA) upon set of serial dilutions. Subsequently, after 24 and 48 hours, all the plates were checked for bacteria growth and the colonies were calculated for colony-forming unit (CFU/mL) numeration and the time kill curve plotted with logarithm of the viable count against time. The results from various concentrations of antibiotics and control were plotted.
To understand the action of the combinations of LC100 with colistin, time kill experiments using the inventive combination in three colistin resistant strains, including two mcr-1(+) and one mcr-1(−) strains, were carried out.

[2] = test system: KLPN multi-drug resistant strains; test: MIC against multi-drug resistant strains (Table 5); type: cell-based, Klebsiella pneumonia; conditions: alone
Procedure: (§1) MIC experiments of the antimicrobial agents were determined by a modified broth microdilution method in accordance with the Clinical and Laboratory Standards Institute (CLSI) guidelines using 96 well culture plates. In brief, serial dilutions of all plates were prepared at different concentrations (μg). The inoculum suspension was prepared by adding isolated colonies from a 18-20 hours on TSA plate into phosphate buffer (0.31 mM, pH 7.2) or in water for injection (BBraun) and adjusting the suspension to a turbidity equivalent to 0.5 McFarland Standard. Each well contained a final bacterial concentration of approximately 5×10^5 colony forming units (CFU)/mL. The plate was covered and incubated at 35° C. for 24 hours. […] For the microdilution plates, turbidity in wells can be measured at OD600 using TECAN infinite M200Pro. MIC was determined as […] concentration that gives a 99 percent inhibition.

[3] = test system: ACBA multi-drug resistant strains; test: MIC against multi-drug resistant strains (Table 5); type: cell-based, Acinetobacter baumannii; conditions: alone
Procedure: as §1

[4] = test system: ENT CLOACAE multi-drug resistant strains; test: MIC against multi-drug resistant strains (Table 5); type: cell-based, E. cloacae; conditions: alone
Procedure: as §1

[5] = test system: mcr-1 bacterial membrane; test: Ethidium bromide (EtBr) fluorescence, membrane disruption; type: cell-based; conditions: mcr-1 bacteria; in words
Procedure: However, EtBr is membrane impermeable, which means that it can only enter the bacterial cell and bind to DNA and emit fluorescence only when both the bacterial outer and inner membranes are perturbed. […] It is also possible that LC100 may have other targets. One possible target is the MCR-1 protein. To understand the interaction of LC100 and the MCR-1 protein, the fluorescence of MCR-1 protein in the presence of different concentration of LC100 was measured. MCR-1 protein contains several tryptophan residues, and autofluoresces at 323 nm.

[6] = test system: MCR positive E. coli Clinical isolate 6083655967; type: in vivo; conditions: for reduction in bacterial burden: neutropenic mice, i.p. 1 hour after infection, 6 hours after treatment, colistin 10 mg/kg, LC100 50 mg/kg, meropenem 100 mg/kg, combination 50 + 10 mg/kg
Procedure: FIG. 21 refers to graphs showing the efficacy testing of combination of LC100 and Colistin in neutropenic mouse thigh infection model infected with MCR positive E. coli Clinical isolate 6083655967. Starting inoculum was 1.87×10^6, N=3. “Combination” refers to Colistin 10 mg/kg+LC100 50 mg/kg. Each treatment was done intraperitoneally 1 hour after infection. 6 hours after treatment, mouse thigh tissues were homogenized for viable CFU.
The combination of colistin and antimicrobial peptide (LC100) was tested against E. coli clinical isolate MCR-positive strain 6083655967 in a neutropenic mouse thigh infection model. C57BL/6 mice were rendered neutropenic by cyclophosphamide, dosed at 150 and 100 mg kg-1 delivered on days −4 and −1 prior to infection. Bacteria were suspended in sterile saline and adjusted to a concentration of ˜1.876×10^6 CFU per infection site (100 micro-liters) and injected intramuscularly into the right thigh of five mice per treatment group. At 1 h post infection, mice received colistin ([…], i.p. n=5), LC100 (50 mg kg-1, i.p. n=5), untreated (n=5), or the combination (n=5). Mice were euthanized 6 h after infection; thigh tissue was aseptically collected, homogenized, serially diluted in PBS and plated onto solid TSA supplemented plates. Plates were incubated overnight at 37° C. and colonies were quantified to determine bacterial load.
To evaluate the in vivo efficacy of the combination of LC100 and colistin, a neutropenic mouse thigh infection model was used. 30 mice were classed into 5 groups: control, colistin at 10 mg/kg, LC100 at 50 mg/kg, meropenem at 100 mg/kg and combination of 50 mg/kg of LC100 and 10 mg/kg of colistin. Each treatment was administered intraperitoneally 1 hour after infection. The starting inoculum was 1.87×10^6, and 6 hours after treatment, mouse thigh tissues were homogenized for viable CFU. […] As neutropenic mice were used in the study, the 1.2 log reduction in bacterial burden is due to the combination of LC100 and colistin rather than the immune system of the mouse.

| Compound | log reduction in time kill ([1]; colistin at concentrations equal or above the MIC) [log] | MIC ([2]; strain KLPN 8852) [µg/mL] | MIC ([2]; strain KLPN 15588) [µg/mL] | MIC ([2]; strain KLPN 24076) [µg/mL] | MIC ([2]; strain KLPN 27025) [µg/mL] | MIC ([3]; strain ACBA 1010) [µg/mL] | MIC ([3]; strain ACBA 1012) [µg/mL] | MIC ([3]; strain ACBA 43357) [µg/mL] | MIC ([3]; strain ACBA ATCC 19606) [µg/mL] | MIC ([4]; strain ENT CLOACAE 6780) [µg/mL] | MIC ([4]; strain ENT CLOACAE 21489) [µg/mL] | MIC ([4]; strain ENT CLOACAE 30063) [µg/mL] | MIC ([4]; strain ENT CLOACAE 44095) [µg/mL] | EtBr fluorescence [5] | reduction in bacterial burden [6] | log reduction in time kill ([1]; ⅛ MIC of colistin in the presence of 10 μg/ml of LC100) [log] | observations in treated mice ([6]; LC100 50 mg/kg or Colistin 10 mg/kg+LC100 50 mg/kg, intraperitoneally) |
| --- | --- | --- | --- | --- | --- | --- | --- | --- | --- | --- | --- | --- | --- | --- | --- | --- | --- |
| Colistin | 3 | >50 | 1.56 | 1.56 | 1.56 | 0.78 | 0.78 | 3.125 | 1.56 | 1.56 | 0.78 | >50 | >50 | slight fluorescence | cannot reduce the bacterial burden | – | – |
| CCN(CC)CCCCOc1ccc(/C=C/C(=O)c2ccc(OCCCCN(CC)CC)c(CC=C(C)C)c2O)cc1 [LC100] | – | >50 | >50 | >50 | >50 | 25 (≈ 43.2 µM) | 50 (≈ 86.4 µM) | 50 (≈ 86.4 µM) | >50 | >50 | >50 | >50 | >50 | slight fluorescence | cannot reduce the bacterial burden | 3 | Abdominal distension |
